The results in this text go back to ChEMBL document CHEMBL3217636, “Design, synthesis and biological evaluation of novel benzothiazole and triazole analogs as falcipain inhibitors” (Medchemcomm, 2011).

As a reminder, the IC50 is the concentration at which inhibition is half-maximal.

A short description of assay [1]: Inhibition of Plasmodium falciparum recombinant falcipain 2.
Assay [2] can be described thus: Inhibition of Plasmodium falciparum recombinant falcipain 3.
Assay [3] concerns Plasmodium falciparum. The experiment in a line: Antimalarial activity against Plasmodium falciparum W2 at 10 uM. Type of assay: functional, organism-based.
Another assay addresses T1, Cathepsin K (Homo sapiens, UniProt P43235).
T1 sequence (P43235 whole entry): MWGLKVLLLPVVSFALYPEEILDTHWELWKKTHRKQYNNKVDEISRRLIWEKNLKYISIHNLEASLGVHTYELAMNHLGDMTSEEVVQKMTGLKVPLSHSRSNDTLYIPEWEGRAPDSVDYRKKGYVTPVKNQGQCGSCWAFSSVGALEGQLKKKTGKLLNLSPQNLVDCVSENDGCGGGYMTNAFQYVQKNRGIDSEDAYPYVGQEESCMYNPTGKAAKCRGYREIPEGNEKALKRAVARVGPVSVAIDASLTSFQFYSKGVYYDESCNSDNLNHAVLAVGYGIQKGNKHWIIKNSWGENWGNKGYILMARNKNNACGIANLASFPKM
The experiment in a line: Inhibition of human cathepsin K.

The target in the next assay is Procathepsin L (Homo sapiens, UniProt P07711). The experiment in a line: Inhibition of human cathepsin L1.
Procathepsin L, sequence (P07711 whole entry): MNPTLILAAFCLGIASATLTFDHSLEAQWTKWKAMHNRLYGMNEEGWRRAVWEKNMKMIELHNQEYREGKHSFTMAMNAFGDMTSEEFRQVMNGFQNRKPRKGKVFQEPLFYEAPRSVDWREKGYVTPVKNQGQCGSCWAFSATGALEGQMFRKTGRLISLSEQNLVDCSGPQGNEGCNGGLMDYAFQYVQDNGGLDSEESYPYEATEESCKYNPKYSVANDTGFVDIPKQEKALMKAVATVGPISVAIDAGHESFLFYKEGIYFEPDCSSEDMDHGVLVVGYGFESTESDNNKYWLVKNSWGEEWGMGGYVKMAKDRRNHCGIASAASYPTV
A further assay has as its target Cathepsin B (Homo sapiens, UniProt P07858). Put plainly: Inhibition of human cathepsin B.
Assay [4] deals with Plasmodium falciparum. The experiment in a line: Antimalarial activity against Plasmodium falciparum W2. The format is functional, organism-based.

The source made the active and inactive calls. No cut-off for these calls is given here.

Consider `N[C@@H](C(=O)Nc1ccc2nc(SCC(=O)c3ccc4ccccc4c3)sc2c1)c1ccccc1`, for which the half-inhibitory concentration (IC50) in assay [1] is 12.8 µM; in assay [2], 14.9 µM; on Cathepsin K it was 5.62 µM; on Procathepsin L it was 4.39 µM; on Cathepsin B, greater than 50 µM. Further, in the assay on Plasmodium falciparum [3], the result was inactive. As for `CCCCCc1ccc(-c2cn(CC(=O)Nc3cc(C)on3)nn2)cc1`, the IC50 in assay [1] worked out at 39 µM. Consider `Nc1ccc2nc(SCC(=O)c3ccc4ccccc4c3)sc2c1`, for which the concentration for half-maximal inhibition (IC50) in assay [1] was greater than 50 µM. With `O=C(CSc1nc2ccc(NS(=O)(=O)c3ccc4ccncc4c3)cc2s1)c1ccc2ccccc2c1`, the IC50 in assay [1] is greater than 50 µM; with Plasmodium falciparum [4], 2.08 µM. For the molecule `O=C(CSc1nc2ccc(NS(=O)(=O)c3ccc(OC(F)(F)F)cc3)cc2s1)c1ccc2ccccc2c1`, the IC50 in assay [1] was greater than 50 µM. Turning to `Cc1cc(NC(=O)Cn2cc(-c3ccc(Oc4ccccc4)cc3)nn2)no1`, the IC50 in assay [1] came out at 19.9 µM; in assay [2], 39.7 µM. With `Cc1ccc(NC(=O)CSc2nc3ccc(NS(=O)(=O)c4ccc5ccncc5c4)cc3s2)cc1`, the IC50 in assay [1] was found to be 14 µM. Same read-out and setting: for `Cc1cccc(-c2cn(CC(=O)Nc3cc(C)on3)nn2)c1` the value was greater than 50 µM; for `Cc1ccc(NC(=O)CSc2nc3ccc(NS(=O)(=O)CC(F)(F)F)cc3s2)cc1`, 24.3 µM; for `Cc1cc(NC(=O)Cn2cc(-c3ccc(F)cc3)nn2)no1`, greater than 50 µM. On the same count and under the same terms, for `Nc1ccc2nc(SCC(=O)c3ccccc3)sc2c1` the value was greater than 50 µM; for `Cc1cc(NC(=O)Cn2cc(-c3cccc(O)c3)nn2)no1`, greater than 50 µM. The same measure, in the same setting: next, `COc1ccc2cc(-c3cn(CC(=O)Nc4cc(C)on4)nn3)ccc2c1`: 38.4 µM; `CCOC(=O)CSc1nc2ccc(NS(=O)(=O)c3ccc4ccncc4c3)cc2s1`: 31.3 µM. For `Cc1cc(NC(=O)Cn2cc(-c3cccc4ccccc34)nn2)no1`, the half-maximal inhibitory concentration (IC50) in assay [1] was greater than 50 µM. The same measure, in the same setting: for `Cc1cc(NC(=O)Cn2cc(CCCCl)nn2)no1` the value was greater than 50 µM; for `CCOC(=O)CSc1nc2ccc(NS(=O)(=O)c3ccccc3[N+](=O)[O-])cc2s1`, greater than 50 µM. On the same count and under the same terms, next, `CCOC(=O)CSc1nc2ccc(NS(=O)(=O)CC(F)(F)F)cc2s1`: greater than 50 µM; `Cc1ccc(NC(=O)CSc2nc3ccc(NS(=O)(=O)c4ccc(OC(F)(F)F)cc4)cc3s2)cc1`: 16.9 µM. On the same count and under the same terms, for `Cc1cc(NC(=O)Cn2cc(COc3ccccc3)nn2)no1` the value was greater than 50 µM. Regarding `CCOC(=O)CSc1nc2ccc(NS(=O)(=O)c3ccc(F)cc3)cc2s1`, in assay [1], the IC50 is greater than 50 µM.

`Cc1cc(NC(=O)Cn2nnc(-c3ccc(NC(=O)c4ccc(F)cc4)cc3)n2)no1`: the IC50 in assay [1] was 2.2 µM; in assay [2], 4.95 µM; in the assay on Plasmodium falciparum [4], greater than 10 µM; against Cathepsin K it was 3.83 µM; against Procathepsin L, 24.4 µM; on Cathepsin B, 37.1 µM. `C[C@@H]1CC[C@H]2[C@@H](C)C(=O)O[C@@H]3O[C@@]4(C)CC[C@@H]1[C@]32OO4` [ARTEMISININ] had a 50% inhibitory concentration (IC50) in the assay with Plasmodium falciparum [4] of 0.012 µM. In the case of `Cc1cc(NC(=O)Cn2cc(-c3ccccc3)nn2)no1`, the IC50 in assay [1] is greater than 50 µM. The same measure, in the same setting: next, `Cc1ccc(NC(=O)CSc2nc3ccc(NC(=O)[C@H](N)C(C)C)cc3s2)cc1`: greater than 50 µM. On the same count and under the same terms, for `O=C(CSc1nc2ccc(NS(=O)(=O)c3ccccc3[N+](=O)[O-])cc2s1)c1ccccc1` the value was 11.1 µM; for `CC(=O)Nc1ccc2nc(SCC(=O)c3ccc4ccccc4c3)sc2c1`, 13.2 µM. For the molecule `CC(C)[C@@H](N)C(=O)Nc1ccc2nc(SCC(=O)c3ccc4ccccc4c3)sc2c1`, the 50% inhibitory concentration (IC50) in assay [1] was 12.2 µM; in assay [2], 13.8 µM; in the assay on Plasmodium falciparum [4], 4.65 µM; against Cathepsin K, 14.5 µM; at Procathepsin L, 5.87 µM; on Cathepsin B, greater than 50 µM. Take `Cc1ccc(NC(=O)CSc2nc3ccc(NC(=O)[C@H](N)c4ccccc4)cc3s2)cc1`: in assay [1], the half-inhibitory concentration (IC50) was greater than 50 µM.

Regarding `COc1ccc(C(=O)Nc2ccc3nc(SCC(=O)c4ccccc4)sc3c2)cc1`, the IC50 in assay [1] was 10.3 µM; in assay [2], greater than 50 µM; in the assay on Plasmodium falciparum [4] it was greater than 10 µM; at Cathepsin K it was 6.12 µM; against Procathepsin L, 31.6 µM; against Cathepsin B, 17.7 µM.

For the molecule `Cc1cc(NC(=O)Cn2cc(-c3cccnc3)nn2)no1`, the IC50 in assay [1] is greater than 50 µM. On the same count and under the same terms, next, `Cc1ccc(NC(=O)CSc2nc3ccc(NS(=O)(=O)c4ccc(F)cc4)cc3s2)cc1`: 16.5 µM. On the same count and under the same terms, for `Cc1ccc(NC(=O)CSc2nc3ccc(N)cc3s2)cc1` the value was greater than 50 µM. Still for that read-out and setting: for `O=C(CSc1nc2ccc(NS(=O)(=O)c3ccc(F)cc3)cc2s1)c1ccc2ccccc2c1` the value was 43.2 µM; for `CCOC(=O)CSc1nc2ccc(N)cc2s1`, greater than 50 µM; for `O=C(CSc1nc2ccc(NS(=O)(=O)c3ccc(OC(F)(F)F)cc3)cc2s1)c1ccccc1`, 35.7 µM. As to `CC(C)C[C@H](NC(=O)[C@H]1O[C@@H]1C(=O)O)C(=O)NCCCCN=C(N)N` [E-64], the 50% inhibitory concentration (IC50) in assay [1] turned out to be 0.03 µM; against Cathepsin K it was 0.004 µM; at Procathepsin L, 0.016 µM; at Cathepsin B, 0.005 µM. In the case of `Cc1cc(NC(=O)Cn2cc(-c3ccc(C=O)cc3)nn2)no1`, in assay [1], the concentration for half-maximal inhibition (IC50) was greater than 50 µM. On the same count and under the same terms, for `CC(=O)Nc1ccc2nc(SCC(=O)Nc3ccc(C)cc3)sc2c1` the value was 13.9 µM.
